# Laboratory results reported in patent publication US9044486B2, “Method for prophylaxis or treatment of feline infectious peritonitis” (Cornell University, priority 2008, dated 2015).
# Read-outs that look alike come from different tables or passages of the source. Where a SMILES comes first, the peptide text is derived from it. The star is where a group is joined. Cbz = O=C(OCc1ccccc1)*; CHN2 = [N-]=[N+]=C*; tBu = CC(C)(C)*
# Tests used:
# [1] = test system: FIPV-1146; assay: Growth assay: production of extracellular virus by TCID50, A-72 cells; format: cell-based, Feline infectious peritonitis virus; conditions: A-72 cells pretreated with 10 μM inhibitor; media collected 9 h post-infection; vs DMSO control
# [2] = test system: FECV-1683; assay: as above; format: cell-based, feline enteric coronavirus; conditions: A-72 cells pretreated with 10 μM inhibitor; media collected 9 h post-infection; vs DMSO control
# [3] = test system: FIPV-1146; format: cell-based, Feline infectious peritonitis virus; conditions: for infection by FIPV-1146 (entry), inhibitor pre-incubation: five log dilutions of inhibitor 60 min pre-infection
# [4] = test system: FECV-1683; assay: Infection (entry) assay by immunofluorescence, A-72 cells; format: cell-based, feline enteric coronavirus; conditions: for infection by FECV-1683 (entry), inhibitor pre-incubation: five log dilutions of inhibitor 60 min pre-infection; for infection by FECV-1683 (entry), inhibitor pre-incubation / infection by FECV-1683, inhibitor treatment after entry: fixed 6 h post-infection; for infection by FECV-1683, inhibitor treatment after entry: inhibitor 60 min post-infection
# [5] = test system: influenza virus; format: cell-based; conditions: for influenza virus entry, cathepsin inhibitor treatment: anti-influenza nucleoprotein mAb H19
# [6] = test system: FIPV-1146; assay: Infection of feline cell lines CRFK, AK-D, Fc2Lu by immunofluorescence; format: cell-based, Feline infectious peritonitis virus
# [7] = test system: FECV-1683; assay: as above; format: cell-based, feline enteric coronavirus; conditions: Fc2Lu cells, pretreated with 10 uM inhibitor or 10 mM NH4Cl, 6 h post-infection
# [8] = test system: FIPV-DF2; assay: as above; format: cell-based, Feline infectious peritonitis virus
# [9] = test system: FIPV-1146; assay: Infection of primary feline blood monocytes by immunofluorescence; format: cell-based, Feline infectious peritonitis virus; conditions: monocytes pretreated with 10 μM inhibitor; 12 h post-infection
# [10] = test system: FIPV-DF2; assay: as above; format: cell-based, Feline infectious peritonitis virus; conditions: monocytes pretreated with 10 μM inhibitor; 12 h post-infection
# [11] = test system: serotype I FIPV black strain; assay: Infection of AK-D cells by a serotype I FCoV, immunofluorescence; format: cell-based, Feline infectious peritonitis virus; conditions: AK-D cells pretreated with 10 uM inhibitor
# Procedure: AK-D cells were pretreated with either 10 uM cathepsin B inhibitor CA074-Me (CatB-I), 10 uM cathepsin L inhibitor Z-FY(tBu)-DMK (CatL-I), or 10 mM NH4Cl, and then infected with virus the serotype I FIPV black strain. Immunofluorescence was performed essentially as described for FIG. 4.
# AK-D cells were pretreated with either 10 uM cathepsin B inhibitor CA074-Me (CatB-I), 10 uM cathepsin L inhibitor Z-FY(tBu)-DMK (CatL-I), or 10 mM NH4Cl, and then infected with virus FIPV black strain, a serotype I FIPV. Immunofluorescence was performed essentially as described for FIG. 4.
# [12] = target: cathepsin B (Homo sapiens, UniProt P07858); conditions: kinact/Ki (k2/Ki); cited from earlier work
# [13] = target: cathepsin L (Homo sapiens, UniProt P07711); conditions: kinact/Ki (k2/Ki); cited from earlier work
# cathepsin L, sequence (P07711 114-333, species assumed): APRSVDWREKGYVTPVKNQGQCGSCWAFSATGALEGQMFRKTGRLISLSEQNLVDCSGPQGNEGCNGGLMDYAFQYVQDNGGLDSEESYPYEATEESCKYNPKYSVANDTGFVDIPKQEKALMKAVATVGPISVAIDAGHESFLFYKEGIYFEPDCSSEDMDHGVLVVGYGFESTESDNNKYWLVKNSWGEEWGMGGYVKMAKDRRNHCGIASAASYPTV
# [14] = target: T1, cathepsin B (Mus musculus, UniProt P10605); conditions: 10 mg/kg; cited from earlier work
# T1 construct: host or cells: mouse (in vivo)
# T1 sequence (P10605 80-333): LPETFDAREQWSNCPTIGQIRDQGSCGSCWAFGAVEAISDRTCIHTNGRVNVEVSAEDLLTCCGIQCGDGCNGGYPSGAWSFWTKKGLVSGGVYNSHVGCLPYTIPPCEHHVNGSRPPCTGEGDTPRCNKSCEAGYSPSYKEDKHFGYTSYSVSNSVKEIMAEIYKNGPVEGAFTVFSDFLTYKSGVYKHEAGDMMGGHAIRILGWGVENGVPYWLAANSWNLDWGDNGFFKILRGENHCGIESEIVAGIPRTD
# [15] = test system: influenza virus; format: cell-based; conditions: A-72 cells pretreated with inhibitor; control virus
# [16] = test system: Sendai virus; format: cell-based
# [17] = test system: human coronaviruses; conditions: cited from earlier work
# [18] = test system: murine coronavirus (A59); conditions: cited from earlier work
# [19] = test system: FIPV; conditions: cited from earlier work
# [20] = A-72 cells, fixed 6 h post-infection
# [21] = CRFK, AK-D, Fc2Lu cells, pretreated with 10 uM inhibitor or 10 mM NH4Cl, 6 h post-infection
# [22] = A-72 cells, 1 h post-infection, concentrations shown in FIG. 3
# [23] = A-72 cells, pretreatment with 50 nM bafilomycin A1
# [24] = A-72 cells, post-treatment at the concentrations shown in FIG. 3
molecule,measurement,setting,value
"CCCNC(=O)[C@H]1O[C@@H]1C(=O)N[C@H](C(=O)N1CCC[C@H]1C(=O)OC)[C@@H](C)CC (relative stereo) [CA074-Me, [L-3-trans-(Propylcarbamoyl)oxirane-2-carbonyl]-L-isoleucyl-L-proline Methyl Ester]","production of FIPV-1146 viral particles (extracellular virus, TCID50)",[1],considerably limited the production
same,"production of FECV-1683 viral particles (extracellular virus, TCID50)",[2],considerably limited the production
same,"infection by FIPV-1146 (entry), inhibitor pre-incubation",[3]; [20],almost completely blocked infection
same,"infection by FIPV-1146, inhibitor treatment after entry","[3]; A-72 cells, inhibitor 60 min post-infection, fixed 6 h post-infection",no effect
same,"infection by FECV-1683 (entry), inhibitor pre-incubation",[4]; A-72 cells,potently blocked infection
same,"infection by FECV-1683, inhibitor treatment after entry",[4]; A-72 cells,no effect
same,"influenza virus entry, cathepsin inhibitor treatment","[5]; A-72 cells, […]",Neither the cathepsin B nor the cathepsin L inhibitor had an effect
same,infection by FIPV-1146 of feline cell lines,[6]; [21],almost completely prevented infection
same,infection by FECV-1683 of feline cell lines,[7],almost completely prevented infection
same,infection by FIPV-DF2 of feline cell lines,[8]; [21],almost completely prevented infection
same,inhibition of infection by FIPV-1146 of primary feline blood monocytes,[9],85-95%
same,inhibition of infection by FIPV-DF2 of primary feline blood monocytes,[10],85-95%
same,replication of the serotype I FIPV strain,[11],can inhibit replication
same,apparent second order rate constant for cathepsin B,[12],201 M⁻¹ s⁻¹
same,apparent second order rate constant for cathepsin L,[13],85 M⁻¹ s⁻¹
same,inhibition of cathepsin B in a mouse,[14],inhibit cathepsin B
"CC(C)C[C@H](NC(=O)OCc1ccccc1)C(=O)NNC(=O)NNC(=O)[C@H](CC(C)C)NC(=O)[C@H](Cc1ccccc1)NC(=O)OC(C)(C)C [Boc1, 1-(N-Benzyloxycarbonyl-leucyl)-5-(N-Boc-phenylalanyl-leucyl)carbohydrazide]","production of FIPV-1146 viral particles (extracellular virus, TCID50)",[1],no significant effect
same,"production of FECV-1683 viral particles (extracellular virus, TCID50)",[2],no significant effect
same,"infection by FIPV-1146 (entry), inhibitor pre-incubation",[3]; [20],no effect
same,"infection by FECV-1683 (entry), inhibitor pre-incubation",[4]; A-72 cells,no effect
same,"influenza virus entry, cathepsin inhibitor treatment",[5]; [20],no effect
"CCOC(=O)[C@H]1O[C@@H]1C(=O)N[C@@H](CC(C)C)C(=O)NCCC(C)C [E-64d, (2S,3S)-trans-Epoxysuccinyl-L-leucylamido-3-methylbutane ethyl ester]","production of FIPV-1146 viral particles (extracellular virus, TCID50)",[1],significantly reduced
same,"production of FECV-1683 viral particles (extracellular virus, TCID50)",[2],significantly reduced
same,effect on influenza virus infection,[15],no effect
Cl.N [NH4Cl],FIPV-1146 entry,[3],only partially blocked
same,"FIPV-1146 infection, lysosomotropic agent treatment after entry",[3],minimal effect
same,"FIPV-1146 infectivity, treatment after entry at higher concentrations",[3],significantly reduce infectivity
same,inhibition of entry of FIPV-1146,[3],approximately 20%
same,"FECV-1683 infection, lysosomotropic agent treatment after entry",[4],minimal effect
same,"FECV-1683 infectivity, treatment after entry at higher concentrations",[4],significantly reduce infectivity
same,entry by FECV-1683,[4],almost completely blocked entry
same,influenza virus entry,[5],completely inhibited
same,Sendai virus entry,[16],no reduction in entry
same,infection by FIPV-1146 of feline cell lines,[6],only a marginal effect
same,infection by FECV-1683 of feline cell lines,[7],selectively inhibited
same,infection by FIPV-DF2 of feline cell lines,[8],only a marginal effect
"CC(C)(C)Oc1ccc(C[C@H](NC(=O)[C@H](Cc2ccccc2)NC(=O)OCc2ccccc2)C(=O)C=[N+]=[N-])cc1 [Z-FY-(tBu)-DMK, Z-Phe-Tyr(t-Bu)-diazomethylketone] (Cbz-Phe-Tyr(tBu)-CHN2)","production of FIPV-1146 viral particles (extracellular virus, TCID50)",[1],only a negligible effect
same,"production of FECV-1683 viral particles (extracellular virus, TCID50)",[2],greatly diminished the propagation
same,"infection by FIPV-1146 (entry), inhibitor pre-incubation",[3]; [20],"no effect on FIPV-1146 entry, except for some limited effect at the highest concentration tested"
same,"infection by FECV-1683 (entry), inhibitor pre-incubation",[4]; A-72 cells,potently blocked infection
same,"infection by FECV-1683, inhibitor treatment after entry",[4]; A-72 cells,no effect
same,"influenza virus entry, cathepsin inhibitor treatment","[5]; A-72 cells, […]",Neither the cathepsin B nor the cathepsin L inhibitor had an effect
same,infection by FIPV-1146 of feline cell lines,[6]; [21],little or no effect
same,infection by FECV-1683 of feline cell lines,[7],selectively inhibited
same,infection by FIPV-DF2 of feline cell lines,[8]; [21],little or no effect
same,effect on FIPV-1146 infection of primary feline monocytes (in words),[9],no significant effect
same,effect on FIPV-DF2 infection of primary feline monocytes (in words),[10],no significant effect
CO/C1=C\C(C)=C\[C@@H](C)[C@@H](O)[C@@H](C)C/C(C)=C/C=C/[C@H](OC)[C@@H]([C@@H](C)[C@@H](O)[C@H](C)[C@@]2(O)C[C@@H](O)[C@H](C)[C@@H](C(C)C)O2)OC1=O [bafilomycin A1],"FIPV-1146 infectivity, treatment after entry at higher concentrations",[3],significantly reduce infectivity
same,"FIPV-1146 infection, lysosomotropic agent treatment after entry",[3]; [22],minimal effect
same,inhibition of entry by FIPV-1146,[3]; [23],approximately 40%
same,"FECV-1683 infectivity, treatment after entry at higher concentrations",[4],significantly reduce infectivity
same,"FECV-1683 infection, lysosomotropic agent treatment after entry",[4]; [22],minimal effect
same,entry of FECV-1683,[4]; [23],completely blocked entry
same,"influenza virus infection, post-treatment",[5]; [24],no effect
same,entry of influenza virus,[5]; [23],completely blocked entry
same,Sendai virus entry,"[16]; A-72 cells, bafilomycin A1 at the concentrations tested",unaffected
same,"Sendai virus infection, post-treatment",[16]; [24],no effect
CC(=O)N[C@@H](CC(C)C)C(=O)N[C@@H](CC(C)C)C(=O)N[C@H](C=O)CCCNC(=N)N [leupeptin],replication of human coronavirus,[17],inhibits
same,replication of murine coronavirus A59,[18],does not strongly inhibit
same,inhibition of FIPV,[19],does not strongly inhibit
"cystatin C: a potent inhibitor of cathepsin B (protein, UniProt P01034 27-146, looked up) Cystatin-C: SSPGKPPRLVGGPMDASVEEEGVRRALDFAVGEYNKASNDMYHSRALQVVRARKQIVAGVNYFLDVELGRTTCTKTQPNLDNCPFHDQPHLKRKAFCSFQIYAVPWQGTMTLSKSTCQDA",replication of human coronavirus,[17],inhibited replication
same,replication of murine coronavirus A59,[18],lack of inhibition
